Results on 17 compounds are retold here after patent US20240335431A1, “1-H-PYRROLO[2,3-c]PYRIDINE COMPOUNDS” (Acerta Pharma B.V., priority 2023, published 2024).

Data set [1] deals with OCI-AML3 cells. Put plainly: Proliferation assay, OCI-AML3 (CellTiter-Glo, 7 days). The data set is classed as cell-based, human. The method in brief: (§1)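 Cells were seeded at line-specific low densities for linear growth, exposed to 3.16-fold serial compound dilutions at 0.1% DMSO, and incubated 7 days at 37 °C, 5% CO2. Viability was read by CellTiter-Glo 2.0 luminescence; IC50 came from one-site fits of % inhibition, normalized between DMSO-treated cells (100%) and a day-0 plate (0%).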
In general terms: In ATP-based viability assays light output follows the ATP content of the culture.

Data set [2] can be described thus: Human hepatocyte intrinsic clearance assay. In kind it is in vitro ADME. The conditions noted are these: human hepatocytes. The essentials: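 Pooled 10-donor cryopreserved human hepatocytes in suspension (0.25×10^6 cells in 0.25 mL) incubated with test compound at […], 37° C. Samples taken 0.5–120 min and quenched in acetonitrile, parent remaining measured by LC-MS/MS. CLint ([…]) derived from slope of ln % remaining vs time.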

The subject of data set [3] is HEL cells. Put plainly: Proliferation assay, HEL control cell line (CellTiter-Glo, 7 days). The data set is classed as cell-based, human. To be noted: Homo sapiens, HEL, 168 h. The method in brief: as §1
For data set [4], the target named is muscarinic M2 receptor (Homo sapiens (Human), UniProt P08172). In words: Muscarinic M2 receptor binding assay (assay 1). The conditions noted are these: [3H]AF-DX 384 2 nM, Cheng Prusoff. The procedure:
Cell membrane homogenates (60 μg protein) were incubated for 60 minutes at 22° C. with 2 nM [3H]AF-DX 384 in the absence or presence of the test compound in a buffer containing 50 mM Tris-HCl (pH 7.4), 120 mM NaCl, 5 mM KCl, 5 mM MgCl2, and 1 mM EDTA. Nonspecific binding was determined in the presence of 1 μM atropine. Following incubation, the samples were filtered rapidly under vacuum through glass fiber filters (GF/B, Packard) presoaked with 0.3% PEI and rinsed several times with ice-cold 50 mM Tris-HCl using a 96-sample cell harvester (Unifilter, Packard). The filters were dried then counted for radioactivity in a scintillation counter (Topcount, Packard) using a scintillation cocktail (Microscint 0, Packard). The results were expressed as a percent inhibition of the control radioligand specific binding, from which the Ki was calculated. Data were analyzed using software developed at Cerep (Hill software) and validated by comparison with data generated by the commercial software SigmaPlot®4.0 for Windows® (© 1997 by SPSS Inc.). The inhibition constant, Ki, was calculated using the Cheng Prusoff equation:
where L=concentration of ligand in the assay, and Kd=affinity of the ligand for the receptor. The standard reference compound was methoctramine, which was tested in each experiment at several concentrations to obtain a competition curve from which its IC50 was calculated.

Structures are written as SMILES. Like-named read-outs stand apart in the source and are kept apart here.

Sequence of muscarinic M2 receptor (P08172 whole entry): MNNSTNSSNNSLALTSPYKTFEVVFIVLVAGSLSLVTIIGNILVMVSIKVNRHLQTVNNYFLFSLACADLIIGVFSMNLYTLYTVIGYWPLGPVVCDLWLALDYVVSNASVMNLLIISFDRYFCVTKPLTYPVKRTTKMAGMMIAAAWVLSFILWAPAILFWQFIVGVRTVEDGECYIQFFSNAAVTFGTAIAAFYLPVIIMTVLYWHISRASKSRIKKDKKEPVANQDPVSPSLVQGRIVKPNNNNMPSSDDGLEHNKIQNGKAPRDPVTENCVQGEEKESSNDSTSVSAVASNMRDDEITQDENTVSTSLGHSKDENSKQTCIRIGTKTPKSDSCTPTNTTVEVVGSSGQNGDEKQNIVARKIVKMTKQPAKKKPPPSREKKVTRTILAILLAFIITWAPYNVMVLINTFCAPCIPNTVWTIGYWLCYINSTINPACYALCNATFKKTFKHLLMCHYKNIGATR

`CCN(C(=O)c1cc(F)ccc1-n1cc(C(=O)C2CN(C(=O)[C@H]3NC4CCC3CC4)C2)c2ccncc21)C(C)C` [Example 9, (S)-2-(3-(1-(2-Azabicyclo[2.2.2]octane-3-carbonyl)azetidine-3-carbonyl)-1H-pyrrolo[2,3-c]pyridin-1-yl)-N-ethyl-5-fluoro-N-isopropylbenzamide]: the IC50 is 225 nM in data set [1] (Homo sapiens, OCI-AML-3, 168 h) and above 10000 nM in data set [3]. Further, the “HH CLint” value in data set [2] came to 3.8 μl/min/1E6.
`CC(C)N(C(=O)c1cc(F)ccc1-n1cc(C(=O)[C@@H]2CCN(C(=O)[C@H]3N[C@@H]4CC[C@H]3C4)C2)c2ccncc21)C(C)C` [Example 3, 2-(3-((R)-1-((1R,3S,4S)-2-Azabicyclo[2.2.1]heptane-3-carbonyl)pyrrolidine-3-carbonyl)-1H-pyrrolo[2,3-c]pyridin-1-yl)-5-fluoro-N,N-diisopropylbenzamide]: the IC50 in data set [1] (Homo sapiens, OCI-AML-3, 168 h) is 113 nM; in data set [3] it was above 10000 nM. Besides, the “HH CLint” value in data set [2] is below 1.0 μl/min/1E6.
Take `CCN(C(=O)c1cc(F)ccc1-n1c(C)c(C(=O)[C@@H]2CCN(C(=O)[C@@H]3CCC4(CC4)N3)[C@@H](C)C2)c2ccncc21)C(C)C` (single isomer, unassigned) [Example 52-2, N-Ethyl-5-fluoro-N-isopropyl-2-(2-methyl-3-((2R*,4S*)-2-methyl-1-((S)-4-azaspiro[2.4]heptane-5-carbonyl)piperidine-4-carbonyl)-1H-pyrrolo[2,3-c]pyridin-1-yl)benzamide]: the results for the IC50 in data set [1] and in data set [3] were 82 nM and above 10000 nM, respectively. The “HH CLint” value in data set [2] is recorded as 3.5 μl/min/1E6.
On to `CC(C)N(C(=O)c1cc(F)ccc1-n1cc(C(=O)C2CCN(C[C@H]3CC[C@H](NS(C)(=O)=O)CC3)CC2)c2ccncc21)C(C)C` [Example 17, 5-Fluoro-N,N-diisopropyl-2-(3-(1-(((1r,4r)-4-(methylsulfonamido)cyclohexyl)-methyl)piperidine-4-carbonyl)-1H-pyrrolo[2,3-c]pyridin-1-yl)benzamide], for which the IC50 is 356 nM in data set [1] (Homo sapiens, OCI-AML-3, 168 h) and above 10000 nM in data set [3]. The “HH CLint” value in data set [2] worked out at 1.2 μl/min/1E6.
`Cc1c(C(=O)[C@@H]2CCN(C(=O)[C@@H]3CC[C@@H](C)N3)[C@@H](C)C2)c2ccncc2n1-c1ccc(F)cc1C(=O)N(C(C)C)C(C)C` (stereo in doubt) [Example 64, 5-Fluoro-N,N-diisopropyl-2-(2-methyl-3-((2S,4RS)-2-methyl-1-((2S,5R)-5-methylpyrrolidine-2-carbonyl)piperidine-4-carbonyl)-1H-pyrrolo[2,3-c]pyridin-1-yl)benzamide]: the IC50 in data set [1] (Homo sapiens, OCI-AML-3, 168 h) is 313 nM; in data set [3] it was above 10000 nM.
On to `CCN(C(=O)c1cc(F)ccc1-n1c(C)c(C(=O)C2CCN(C(=O)[C@H]3N[C@@H]4CC[C@H]3C4)CC2)c2ccncc21)C(C)C` [Example 46, 2-(3-(1-((1R,3S,4S)-2-Azabicyclo[2.2.1]heptane-3-carbonyl)piperidine-4-carbonyl)-2-methyl-1H-pyrrolo[2,3-c]pyridin-1-yl)-N-ethyl-5-fluoro-N-isopropylbenzamide], for which the “HH CLint” value in data set [2] is below 1.0 μl/min/1E6. Moreover, in data set [4], the Ki was 7100 nM. The compound further returned an IC50 in data set [3] above 10000 nM.
The matching figures for `CC(C)c1ncccc1-c1cc(F)ccc1-n1cc(C(=O)C2CCN(C(=O)[C@H]3N[C@@H]4CC[C@H]3C4)CC2)c2ccncc21` [Example 38, (1-((1R,3S,4S)-2-Azabicyclo[2.2.1]heptane-3-carbonyl)piperidin-4-yl)(1-(4-fluoro-2-(2-isopropylpyridin-3-yl)phenyl)-1H-pyrrolo[2,3-c]pyridin-3-yl)methanone]: below 1.0 μl/min/1E6, 300 nM and above 10000 nM.
In the case of `CC(C)c1ncncc1-c1cc(F)ccc1-n1cc(C(=O)C2CCN(C(=O)[C@H]3N[C@@H]4CC[C@H]3C4)CC2)c2ccncc21` [Example 37, (1-((1R,3S,4S)-2-Azabicyclo[2.2.1]heptane-3-carbonyl)piperidin-4-yl)(1-(4-fluoro-2-(4-isopropylpyrimidin-5-yl)phenyl)-1H-pyrrolo[2,3-c]pyridin-3-yl)methanone], in data set [2], the “HH CLint” value is on record as below 1.0 μl/min/1E6. In data set [4], this compound gave an inhibition constant Ki of 300 nM. Also, the half-maximal inhibitory concentration (IC50) in data set [3] was above 10000 nM.
For `CC(C)N(C(=O)c1cc(F)ccc1-n1cc(C(=O)C2CCN(C(=O)[C@H]3N[C@H]4C[C@@H]3[C@@H](F)C4)CC2)c2ccncc21)C(C)C` [Example 22, 5-Fluoro-2-(3-(1-((1S,3S,4S,5S)-5-fluoro-2-azabicyclo[2.2.1]heptane-3-carbonyl)piperidine-4-carbonyl)-1H-pyrrolo[2,3-c]pyridin-1-yl)-N,N-diisopropylbenzamide], in that order: below 1.7 μl/min/1E6, 700 nM and above 10000 nM.
For `Cc1c(C(=O)C2CCN(C(=O)[C@@H]3CCC(C)(C)N3)CC2)c2ccncc2n1-c1ccc(F)cc1C(=O)N(C(C)C)C(C)C` (single isomer, unassigned) [Example 56-1], in that order: 6.9 μl/min/1E6, 7400 nM and above 10000 nM.
For `Cc1c(C(=O)C2CCN(C(=O)[C@H]3NC[C@@H]4C[C@@H]43)CC2)c2ccncc2n1-c1ccc(F)cc1C(=O)N(C(C)C)C(C)C` (single isomer, unassigned) [Example 55-1], in that order: 4.4 μl/min/1E6, 3800 nM and above 10000 nM.
With `CCN(C(=O)c1cc(F)ccc1-n1c(C)c(C(=O)[C@@H]2CCN(C(=O)[C@@H]3CCC4(CC4)N3)[C@@H](C)C2)c2ccncc21)C(C)C` (single isomer, unassigned) [Example 52-1, N-Ethyl-5-fluoro-N-isopropyl-2-(2-methyl-3-((2R*,4S*)-2-methyl-1-((S)-4-azaspiro[2.4]heptane-5-carbonyl)piperidine-4-carbonyl)-1H-pyrrolo[2,3-c]pyridin-1-yl)benzamide], inhibition in data set [1] was half-maximal at 40 nM (IC50). Moreover, the “HH CLint” value in data set [2] came to 4.1 μl/min/1E6.
With `CC(C)N(C(=O)c1cc(F)ccc1-n1cc(C(=O)C2CCN(C(=O)[C@H]3NC4CCC3CC4)CC2)c2ccncc21)C(C)C` [Example 20, (S)-2-(3-(1-(2-Azabicyclo[2.2.2]octane-3-carbonyl)piperidine-4-carbonyl)-1H-pyrrolo[2,3-c]pyridin-1-yl)-5-fluoro-N,N-diisopropylbenzamide], in data set [2], the “HH CLint” value was below 1.0 μl/min/1E6. Moreover, the affinity in data set [4], expressed as Ki, was 800 nM. The compound also gave an IC50 in data set [3] above 10000 nM.
For the compound `CCN(C(=O)c1cc(F)ccc1-n1c(C)c(C(=O)[C@@H]2CCN(C(=O)[C@@H]3CC[C@@H](C)N3)[C@@H](C)C2)c2ccncc21)C(C)C` (stereo in doubt) [Example 65, N-Ethyl-5-fluoro-N-isopropyl-2-(2-methyl-3-((2S,4RS)-2-methyl-1-((2S,5R)-5-methylpyrrolidine-2-carbonyl)piperidine-4-carbonyl)-1H-pyrrolo[2,3-c]pyridin-1-yl)benzamide], the IC50 in data set [1] (Homo sapiens, OCI-AML-3, 168 h) was 126 nM; in data set [3], above 10000 nM.
As for `CCN(C(=O)c1cc(F)ccc1-n1cc(C(=O)C2CCN(C(=O)[C@H]3N[C@H]4C[C@@H]3[C@@H](F)C4)CC2)c2ccncc21)C(C)C` [Example 30, N-Ethyl-5-fluoro-2-(3-(1-((1S,3S,4S,5S)-5-fluoro-2-azabicyclo[2.2.1]heptane-3-carbonyl)piperidine-4-carbonyl)-1H-pyrrolo[2,3-c]pyridin-1-yl)-N-isopropylbenzamide], the IC50 in data set [1] (Homo sapiens, OCI-AML-3, 168 h) was 59 nM; in data set [3], above 10000 nM.
With `CC(C)N(C(=O)c1cc(F)ccc1-n1cc(C(=O)[C@@H]2CCN(C[C@H]3CC[C@H](NS(C)(=O)=O)CC3)C2)c2ccncc21)C(C)C` [Example 4, 5-Fluoro-N,N-diisopropyl-2-(3-((R)-1-(((1r,4R)-4-(methylsulfonamido)-cyclohexyl)methyl)pyrrolidine-3-carbonyl)-1H-pyrrolo[2,3-c]pyridin-1-yl)benzamide], the IC50 is 223 nM in data set [1] (Homo sapiens, OCI-AML-3, 168 h) and above 10000 nM in data set [3]. For the same compound, the “HH CLint” value in data set [2] is recorded as 2.3 μl/min/1E6.
In the case of `CCN(C(=O)c1cc(F)ccc1-n1cc(C(=O)C2CCN(C(=O)[C@H]3N[C@@H]4CC[C@H]3C4)CC2)c2ccncc21)C(C)C` [Example 31, 2-(3-(1-((1R,3S,4S)-2-Azabicyclo[2.2.1]heptane-3-carbonyl)piperidine-4-carbonyl)-1H-pyrrolo[2,3-c]pyridin-1-yl)-N-ethyl-5-fluoro-N-isopropylbenzamide], in data set [2], the “HH CLint” value was below 1.0 μl/min/1E6. In data set [4], the affinity corresponds to a Ki of 100 nM. In addition, the IC50 in data set [3] is above 10000 nM.

The IC50 is the concentration that inhibits the measured activity by half. A lower IC50 goes with greater potency. As usually defined, the Ki is the equilibrium dissociation constant of an inhibitor or competing ligand from its target.
